Test results reported in the supplement of paper PMC11208160.

Assay: recombinant UMI read abundance after kanamycin selection (control-corrected) (log10(CPM+1)); higher = more efficient recombination; extreme values may be limits of the assay; sequences stand for … in AGTGCAGAGAAAATCGGCCAGTTTTCTCTGCCTGCAGTCCGCATGCCGTGGGACCCCTTGGGTTCTAACCTGTTGCCTAGATTTATGCAGCGGACTGCCTTTCTCCCAAAGTGATAAACCGG…AGGTTGGTTTCACT; site = the 11-nt donor
Method in brief: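 Reported values are log10(CPM+1) from a pooled Escherichia coli screen of donor and donor-binding-loop pairs for the IS621 bridge recombinase. Selection used IPTG (0.07 mM) plus kanamycin, against unselected plating, each in two replicates. Recombinant UMIs were amplified across the donor–target junction, sequenced, converted to CPM, averaged over replicates and scaled by control-derived factors.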
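Also: IS621 bridge recombinase in Escherichia coli cells against a fixed T5 target plasmid.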

For “TAACGTTCATGGACCGGTTTTCCCGGTAATCCGTATTTGCA (site TAACGTTCTTG)”, which “recombinant UMI read abundance (log10)” value is on record?
Its value is 1.75.

Which “recombinant UMI read abundance (log10)” value does the source give for “TAACTGACATGGACCGGTTTTCCCGGTAATCCGTATTTGAT (site TAACTGACTAT)” here?
Its value is 1.54.

For “TAACTGCCATGGACCGGTTTTCCCGGTAATCCGTATTTGTG (site TAACTGCCTCA)”, which “recombinant UMI read abundance (log10)” value is on record?
The value was 0.00877.

With “TAACTTACATGGACCGGTTTTCCCGGTAATCCGTATTTGGC (site TAACTTACTGC)” as the sequence, how does the “recombinant UMI read abundance (log10)” value read?
The value was 1.32.

With “TAAGAATCATGGACCGGTTTTCCCGGTAATCCGTATTTGCG (site TAAGAATCTCG)” as the sequence, how does the “recombinant UMI read abundance (log10)” value read?
The value was 2.9.

With “TAAGAATCATGGACCGGTTTTCCCGGTAATCCGTATTTGCG (site TACGAATCTCG)” as the sequence, how does the “recombinant UMI read abundance (log10)” value read?
Its value is 1.95.

Which “recombinant UMI read abundance (log10)” value does the source give for “TAAGAATCATGGACCGGTTTTCCCGGTAATCCGTATTTGCG (site TAGGAATCTCG)” here?
Its value is 2.51.

Which “recombinant UMI read abundance (log10)” value does the source give for “TAAGAATCATGGACCGGTTTTCCCGGTAATCCGTATTTGCG (site TATGAATCTCG)” here?
The value was 1.97.

With “TAAGACTCATGGACCGGTTTTCCCGGTAATCCGTATTTGTC (site TAAGACTCTGA)” as the sequence, how does the “recombinant UMI read abundance (log10)” value read?
The value was 2.64.

With “TAAGCCGCATGGACCGGTTTTCCCGGTAATCCGTATTTGCA (site GGGTTGCCTGA)” as the sequence, how does the “recombinant UMI read abundance (log10)” value read?
Its value is 0.

Which “recombinant UMI read abundance (log10)” value does the source give for “TAAGCTGCATGGACCGGTTTTCCCGGTAATCCGTATTTGAG (site TAAGCTGCTCT)” here?
Its value is 1.32.

With “TAAGCTGCATGGACCGGTTTTCCCGGTAATCCGTATTTGCC (site TAAGCTGCTGG)” as the sequence, how does the “recombinant UMI read abundance (log10)” value read?
Its value is 1.94.

For “TAAGGTACATGGACCGGTTTTCCCGGTAATCCGTATTTGTA (site TAAGGTACTTA)”, which “recombinant UMI read abundance (log10)” value is on record?
Its value is 2.09.

With “TAAGTTGCATGGACCGGTTTTCCCGGTAATCCGTATTTGTG (site TAAGTTGCTCA)” as the sequence, how does the “recombinant UMI read abundance (log10)” value read?
Its value is 1.4.

With “TAATAGTCATGGACCGGTTTTCCCGGTAATCCGTATTTGCG (site TAATAGTCTCG)” as the sequence, how does the “recombinant UMI read abundance (log10)” value read?
Its value is 3.15.

With “TAATCACCATGGACCGGTTTTCCCGGTAATCCGTATTTGAG (site TAATCACCTCT)” as the sequence, how does the “recombinant UMI read abundance (log10)” value read?
The value was 0.0222.

With “TAATGACCATGGACCGGTTTTCCCGGTAATCCGTATTTGCC (site TAATGACCTGG)” as the sequence, how does the “recombinant UMI read abundance (log10)” value read?
Its value is 0.

Which “recombinant UMI read abundance (log10)” value does the source give for “TAATGACCATGGACCGGTTTTCCCGGTAATCCGTATTTGGG (site TAATGAACTCC)” here?
The value was 0.00176.

For “TAATGACCATGGACCGGTTTTCCCGGTAATCCGTATTTGGG (site TAATGACCTCC)”, which “recombinant UMI read abundance (log10)” value is on record?
Its value is 0.00316.

With “TAATGACCATGGACCGGTTTTCCCGGTAATCCGTATTTGGG (site TAATGAGCTCC)” as the sequence, how does the “recombinant UMI read abundance (log10)” value read?
The value was 0.0136.

With “TAATGACCATGGACCGGTTTTCCCGGTAATCCGTATTTGGG (site TAATGATCTCC)” as the sequence, how does the “recombinant UMI read abundance (log10)” value read?
Its value is 0.00372.

With “TAATGAGCATGGACCGGTTTTCCCGGTAATCCGTATTTGTG (site TAATGAGCTCA)” as the sequence, how does the “recombinant UMI read abundance (log10)” value read?
Its value is 1.16.

Which “recombinant UMI read abundance (log10)” value does the source give for “TAATGAGCATGGACCGGTTTTCCCGGTAATCCGTATTTGTG (site TAATGAGCTCC)” here?
Its value is 0.00287.

With “TAATGAGCATGGACCGGTTTTCCCGGTAATCCGTATTTGTG (site TAATGAGCTCG)” as the sequence, how does the “recombinant UMI read abundance (log10)” value read?
The value was 1.54.

For “TAATGAGCATGGACCGGTTTTCCCGGTAATCCGTATTTGTG (site TAATGAGCTCT)”, which “recombinant UMI read abundance (log10)” value is on record?
Its value is 0.133.

With “TAATGTGCATGGACCGGTTTTCCCGGTAATCCGTATTTGGG (site TAATGAGCTCC)” as the sequence, how does the “recombinant UMI read abundance (log10)” value read?
Its value is 0.0156.

Which “recombinant UMI read abundance (log10)” value does the source give for “TAATGTGCATGGACCGGTTTTCCCGGTAATCCGTATTTGGG (site TAATGCGCTCC)” here?
The value was 0.00475.

With “TAATGTGCATGGACCGGTTTTCCCGGTAATCCGTATTTGGG (site TAATGGGCTCC)” as the sequence, how does the “recombinant UMI read abundance (log10)” value read?
The value was 0.00856.

For “TAATGTGCATGGACCGGTTTTCCCGGTAATCCGTATTTGGG (site TAATGTGCTCC)”, which “recombinant UMI read abundance (log10)” value is on record?
The value was 0.0867.

With “TAATTGACATGGACCGGTTTTCCCGGTAATCCGTATTTGCT (site TAATTGACTAG)” as the sequence, how does the “recombinant UMI read abundance (log10)” value read?
Its value is 2.35.

Which “recombinant UMI read abundance (log10)” value does the source give for “TAATTGACATGGACCGGTTTTCCCGGTAATCCGTATTTGCT (site TACTTGACTAG)” here?
The value was 1.17.

With “TAATTGACATGGACCGGTTTTCCCGGTAATCCGTATTTGCT (site TAGTTGACTAG)” as the sequence, how does the “recombinant UMI read abundance (log10)” value read?
Its value is 1.39.

For “TAATTGACATGGACCGGTTTTCCCGGTAATCCGTATTTGCT (site TATTTGACTAG)”, which “recombinant UMI read abundance (log10)” value is on record?
The value was 0.698.

For “TACAACACATGGACCGGTTTTCCCGGTAATCCGTATTTGTG (site TACAACACTCA)”, which “recombinant UMI read abundance (log10)” value is on record?
The value was 0.148.

With “TACAATACATGGACCGGTTTTCCCGGTAATCCGTATTTGCA (site TAAAATACTTG)” as the sequence, how does the “recombinant UMI read abundance (log10)” value read?
The value was 0.

For “TACAATACATGGACCGGTTTTCCCGGTAATCCGTATTTGCA (site TACAATACTTG)”, which “recombinant UMI read abundance (log10)” value is on record?
The value was 1.18.

Which “recombinant UMI read abundance (log10)” value does the source give for “TACAATACATGGACCGGTTTTCCCGGTAATCCGTATTTGCA (site TAGAATACTTG)” here?
Its value is 0.

Which “recombinant UMI read abundance (log10)” value does the source give for “TACAATACATGGACCGGTTTTCCCGGTAATCCGTATTTGCA (site TATAATACTTG)” here?
The value was 0.

Which “recombinant UMI read abundance (log10)” value does the source give for “TACAATCCATGGACCGGTTTTCCCGGTAATCCGTATTTGAG (site TACAATCCTCT)” here?
The value was 0.531.

Which “recombinant UMI read abundance (log10)” value does the source give for “TACAGACCATGGACCGGTTTTCCCGGTAATCCGTATTTGTC (site TACAGACCTGA)” here?
Its value is 0.

Which “recombinant UMI read abundance (log10)” value does the source give for “TACAGCGCATGGACCGGTTTTCCCGGTAATCCGTATTTGCG (site TACAGCGCTCG)” here?
The value was 0.00572.

For “TACAGGCCATGGACCGGTTTTCCCGGTAATCCGTATTTGCT (site TACAGGCCTAG)”, which “recombinant UMI read abundance (log10)” value is on record?
The value was 0.00356.

For “TACCACCCATGGACCGGTTTTCCCGGTAATCCGTATTTGCT (site TACCACCCTAG)”, which “recombinant UMI read abundance (log10)” value is on record?
The value was 0.83.

Which “recombinant UMI read abundance (log10)” value does the source give for “TACCCGCCATGGACCGGTTTTCCCGGTAATCCGTATTTGCG (site TACCCGCCTCG)” here?
The value was 0.26.

Which “recombinant UMI read abundance (log10)” value does the source give for “TACCCTTCATGGACCGGTTTTCCCGGTAATCCGTATTTGGT (site TAACCTTCTAC)” here?
Its value is 0.00354.

Which “recombinant UMI read abundance (log10)” value does the source give for “TACCCTTCATGGACCGGTTTTCCCGGTAATCCGTATTTGGT (site TACCCTTCTAC)” here?
Its value is 0.56.

With “TACCCTTCATGGACCGGTTTTCCCGGTAATCCGTATTTGGT (site TAGCCTTCTAC)” as the sequence, how does the “recombinant UMI read abundance (log10)” value read?
Its value is 0.0115.

For “TACCCTTCATGGACCGGTTTTCCCGGTAATCCGTATTTGGT (site TATCCTTCTAC)”, which “recombinant UMI read abundance (log10)” value is on record?
The value was 0.00909.

Which “recombinant UMI read abundance (log10)” value does the source give for “TACCTCTCATGGACCGGTTTTCCCGGTAATCCGTATTTGAC (site TACCTCTCTGT)” here?
The value was 0.216.

For “TACCTGACATGGACCGGTTTTCCCGGTAATCCGTATTTGCT (site TACATGACTAG)”, which “recombinant UMI read abundance (log10)” value is on record?
The value was 0.

Which “recombinant UMI read abundance (log10)” value does the source give for “TACCTGACATGGACCGGTTTTCCCGGTAATCCGTATTTGCT (site TACCTGACTAG)” here?
Its value is 0.461.

Which “recombinant UMI read abundance (log10)” value does the source give for “TACCTGACATGGACCGGTTTTCCCGGTAATCCGTATTTGCT (site TACGTGACTAG)” here?
The value was 0.
